pIC50: −log10 of the molar value.
Tests used:
VCAM-1 = VCAM-1 assay with ELISA readout (Examples 5-6); format: cell-based; conditions: for pIC50: TNF added with compound, incubated overnight (approximately 16 hours)
Protocol: Two to four confluent P150 plates are trypsinized and the cells transferred to a 50 mL conical centrifuge tube. The cells are pelleted, resuspended, and counted using the trypan blue exclusion method.
Cells are resuspended at a concentration of 36,000 cells/mL and 1 mL is aliquoted per well.
Cells are split into 24 well tissue culture plates. The cells in each well should be approximately 90-95% confluent by the following day. Cells should not be older than passage 8.
Compounds are initially screened at 50 μM and 10 μM. A 50 mM stock solution for each compound is prepared in culture medium. The stock solution is diluted to 5 mM and 1 mM. When 10 μL of the 5 mM solution is added to the well (1 mL medium/well), the final concentration will be 50 μM. Adding 10 μL of the 1 mM solution to the well will give a final concentration of 10 μM.
Compounds which will not go into solution in culture medium are resuspended in DMSO at a concentration of 25 mM. The stock solution is then diluted to the final concentration in culture medium. The old medium is aspirated and 1 mL of the new medium with the compound is added. For example, if the final concentration is 50 µM, the 2 μL of the 25 mM stock is added per mL of culture medium. The […] solution is diluted for lower concentrations.
The compounds are added to the plate (each compound is done in duplicate). One plate is done for VCAM expression and one plate is done for ICAM expression.
Immediately after the compounds are added, TNF is added to each well. 100 units/mL TNF is usually added to each well. Since each lot of TNF varies in the number of units, each new lot is titrated to determine the optimum concentration. Therefore this concentration will change. If 100 units/mL is being used, dilute the TNF to 10 units/μL and add 10 μL to each well.
(§1) The plates are incubated at 37° C., 5% CO2 overnight (approximately 16 hours). The next day the plates are checked under the microscope to see if there are any visual signs of toxicity. Records are made of any cell death, debris, or morphology changes, as well as insoluble compounds (particulate or turbity).
In order to assess MCP-1, the media (500 μL) is saved and frozen at −70° C. Wash cells once with roughly 1 ml/well of Hanks Balance Salt Solution (HBSS) or PBS. Gently empty the wash solution and then tap the plate onto paper towels. Add either 250 μL/well of HBSS+5% FCCS to the plank (no primary antibody wells) or 250 μL/well of primary antibody diluted in HBSS+5% FCS. Incubate for 30 minutes at 37° C. Wash the wells twice with 0.5 mL/well HBSS or PBS and gently tap the plates onto paper towels after the last wash. Add 250 μL/well of HRP-conjugated second antibody diluted in HBSS+5% FCS to every well including the blank wells (no primary antibody). Incubate at 37° C. for 30 minutes. Wash the wells four times with 0.5 mL/well HBSS or PBS and gently tap the plates onto paper towels after the last wash. Add 250 μL/well of substrate solution. Incubate at room temperature in the dark until there is adequate color development (blue). Note the length of time incubation was performed (typically 15-30 minutes). Add 75 μL/well stopper solution (8N sulfuric acid), and read at 450 nm.

cells = format: cell-based; design: unit not given beside the values
Protocol: as §1

Structure (SMILES) | pIC50 (VCAM-1) | LD50 (cells) | VCAM-1 inhibition at [μM] (VCAM-1; at 50 μM) [% at 50]
CC(C)(C)c1cc(SCc2ccc(C(=O)O)cc2)cc(C(C)(C)C)c1O [2,6-di-tert-butyl-4-thio(4′(methyl)benzoic acid)phenol] | < 4.30 | >100 | 
CC(C)(C)c1cc(SCc2ccc(CC(=O)O)cc2)cc(C(C)(C)C)c1O [2,6-di-tert-butyl-4-thio-(4′(methyl)phenylacetic acid)) phenol] | 4.10 | 200 | 
CN(C)CCCSc1cc(C(C)(C)C)c(O)c(C(C)(C)C)c1 [2,6-di-tert-butyl-4-thio(3′-(dimethylamino)propyl))phenol] |  | 100 | 30
CC(C)(C)c1cc(SCc2ccc([N+](=O)[O-])cc2[N+](=O)[O-])cc(C(C)(C)C)c1O [2,6-di-tert-butyl-4-thio(2′,4′-dinitrobenzyl)phenol] | 5.10 | 400 | 
CN(C)S(=O)(=O)c1ccc(CSc2cc(C(C)(C)C)c(O)c(C(C)(C)C)c2)cc1 [2,6-di-tert-butyl-4-thio(4′-methyl-N,N-dimethylbenzene-sulfonamide)phenol] | 4.70 | 350 | 
CC(C)(C)c1cc(SCc2cccc([N+](=O)[O-])c2)cc(C(C)(C)C)c1O [2,6-di-tert-butyl-4-thio(3′-nitrobenzyl)phenol] | 4.89 | 200 | 

Source: US20060058268A1, “Compounds and methods for treating diabetic vascular diseases” (priority 2004, published 2006)
